Experimental data as given in the supplement of paper PMC10307832.

Tests used:
Assay in all cases: relative viability (nuclei count vs DMSO), 5 days (fraction); higher = more cells survive
BAM7 + Decitabine = compound: CCOC1=CC=CC=C1N=NC2=C(NN(C2=O)C3=NC(=CS3)C4=CC=CC=C4)C [BAM7] + Nc1ncn([C@H]2C[C@H](O)[C@@H](CO)O2)c(=O)n1 [Decitabine] (partner 2 µM)
How it was run: (§1)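 Relative viability equals treated-well nuclei counts divided by vehicle-well nuclei counts. Counts came from 4× images of lung cancer cell lines grown in 1536-well plates for 5 days after pin-tool dosing on the day after seeding. Dosing used one drug alone or a fixed anchor-drug dose plus five library-drug doses (not always all listed) in √10 steps, and values are medians of duplicate plates.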

[1] = compound: CCn1c(-c2nonc2N)nc2c(C#CC(C)(C)O)ncc(OC[C@H]3CCCNC3)c21 + CC1(C)CCC(c2ccc(Cl)cc2)=C(CN2CCN(c3ccc(C(=O)NS(=O)(=O)c4ccc(N[C@H](CCN5CCOCC5)CSc5ccccc5)c(S(=O)(=O)C(F)(F)F)c4)cc3)CC2)C1 [Navitoclax] (partner 0.5 µM)
How it was run: as §1

BAM7 + Trametinib = compound: CCOC1=CC=CC=C1N=NC2=C(NN(C2=O)C3=NC(=CS3)C4=CC=CC=C4)C [BAM7] + CC(=O)Nc1cccc(-n2c(=O)n(C3CC3)c(=O)c3c(Nc4ccc(I)cc4F)n(C)c(=O)c(C)c32)c1 [Trametinib] (partner 0.02 µM)
How it was run: as §1

BAM7 + Phenformin = compound: CCOC1=CC=CC=C1N=NC2=C(NN(C2=O)C3=NC(=CS3)C4=CC=CC=C4)C [BAM7] + N=C(N)NC(=N)NCCc1ccccc1 [Phenformin] (partner 250 µM)
How it was run: as §1

Cell Line | relative viability (BAM7 + Decitabine; first compound 0.5 µM) | relative viability (BAM7 + Decitabine; first compound 5 µM) | relative viability (BAM7 + Decitabine; first compound 15.81 µM) | relative viability (BAM7 + Decitabine; first compound 50 µM) | relative viability ([1]; first compound 0.01 µM) | relative viability ([1]; first compound 0.03162 µM) | relative viability ([1]; first compound 0.1 µM) | relative viability ([1]; first compound 0.3162 µM) | relative viability ([1]; first compound 1 µM) | relative viability (BAM7 + Trametinib; first compound 0.5 µM) | relative viability (BAM7 + Trametinib; first compound 5 µM) | relative viability (BAM7 + Trametinib; first compound 15.81 µM) | relative viability (BAM7 + Trametinib; first compound 50 µM) | relative viability (BAM7 + Phenformin; first compound 0.5 µM) | relative viability (BAM7 + Phenformin; first compound 5 µM) | relative viability (BAM7 + Phenformin; first compound 15.81 µM) | relative viability (BAM7 + Phenformin; first compound 50 µM)
HCC-44 | 0.96 | 0.938 | 0.926 | 0.949 | 0.938 | 0.956 | 0.944 | 0.851 | 0.981 | 1.07 | 1.11 | 0.983 | 1.12 | 0.351 | 0.252 | 0.172 | 0.273
NCI-H596 | 0.879 | 0.984 | 0.908 | 1.09 | 0.914 | 0.96 | 0.934 | 1 | 0.938 | 0.869 | 0.838 | 0.754 | 0.736 | 0.751 | 0.804 | 0.705 | 0.811
H3255 | 0.588 | 0.612 | 0.582 | 0.603 | 0.526 | 0.571 | 0.429 | 0.407 | 0.466 | 0.539 | 0.607 | 0.507 | 0.555 | 0.353 | 0.343 | 0.386 | 0.384
NCI-H647 | 0.404 | 0.372 | 0.436 | 0.438 | 1.16 | 0.96 | 1.14 | 1.08 | 1.14 | 0.457 | 0.599 | 0.494 | 0.445 | 0.54 | 0.443 | 0.539 | 0.591
NCI-H2023 | 0.218 | 0.225 | 0.191 | 0.246 | 1.02 | 0.98 | 0.972 | 0.932 | 1.01 | 0.525 | 0.437 | 0.398 | 0.49 | 0.446 | 0.393 | 0.37 | 0.411
NCI-H23 | 0.347 | 0.332 | 0.322 | 0.304 | 0.782 | 0.807 | 0.868 | 0.794 | 0.833 | 0.314 | 0.423 | 0.389 | 0.462 | 0.816 | 0.76 | 0.86 | 0.856
NCI-H1944 | 0.407 | 0.405 | 0.41 | 0.403 | 1.11 | 0.954 | 1.13 | 1.05 | 1.08 | 0.444 | 0.433 | 0.434 | 0.439 | 0.223 | 0.199 | 0.205 | 0.22
NCI-H1793 | 0.469 | 0.552 | 0.467 | 0.486 | 0.381 | 0.462 | 0.465 | 0.375 | 0.41 | 0.407 | 0.473 | 0.385 | 0.483 | 0.342 | 0.338 | 0.348 | 0.317
NCI-H520 | 0.54 | 0.478 | 0.484 | 0.525 | 1.05 | 1.11 | 1.05 | 0.934 | 0.797 | 0.595 | 0.782 | 0.804 | 0.789 | 0.668 | 0.573 | 0.704 | 0.707
